Key:
CDK1/Cyclin B1 = CDK1/Cyclin B1 (Homo sapiens (Human), UniProt P06493); assay: CDK1/Cyclin B1 ADP-Glo Kinase Assay; type: biochemical; conditions: 80 uM ATP
In short: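 CDK1/cyclin B1 (4.917 nM) preincubated 30 min with inhibitor (2% DMSO), then 80 µM ATP (Km 78.6 µM) and 0.75 µM substrate added; 90 min, room temperature, pH 7.5. ADP measured by ADP-Glo luminescence; IC50 from 4-parameter fit.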

[1] = target: CDK2/Cyclin E1 full length (Homo sapiens (Human), UniProt P24941); assay: CDK2/Cyclin E1 Full Length ADP-Glo Kinase Assay; type: biochemical; conditions: 20 uM ATP, read-out: CDK2/ CyclinE1 IC50
In short: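 Full-length human CDK2/Cyclin E1 (0.328 nM) pre-incubated 30 min with inhibitor at RT, then reacted 90 min at RT with 20 uM ATP (Km 64.78 uM) and 0.75 uM substrate in pH 7.5 HEPES, 2% DMSO. ADP measured by ADP-Glo luminescence; IC50 from 4-parameter fit of fractional velocity.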

CDK6/Cyclin D3 = CDK6/Cyclin D3 (Homo sapiens (Human), UniProt Q00534); assay: CDK6/Cyclin D3 ADP-Glo Kinase Assay; type: biochemical; conditions: 100 uM ATP, read-out: CDK6/ CyclinD3 IC50
Sequence of CDK6/Cyclin D3 (Q00534 whole entry): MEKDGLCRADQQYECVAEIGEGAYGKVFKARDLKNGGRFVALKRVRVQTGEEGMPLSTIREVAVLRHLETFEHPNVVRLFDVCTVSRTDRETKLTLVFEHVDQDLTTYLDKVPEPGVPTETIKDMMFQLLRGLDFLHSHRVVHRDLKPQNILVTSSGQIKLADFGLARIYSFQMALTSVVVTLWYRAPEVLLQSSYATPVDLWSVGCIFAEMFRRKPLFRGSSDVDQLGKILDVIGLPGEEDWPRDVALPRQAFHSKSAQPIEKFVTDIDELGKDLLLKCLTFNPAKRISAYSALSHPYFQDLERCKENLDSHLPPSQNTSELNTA
Sequence of CDK6/Cyclin D3 (P30281 whole entry partner): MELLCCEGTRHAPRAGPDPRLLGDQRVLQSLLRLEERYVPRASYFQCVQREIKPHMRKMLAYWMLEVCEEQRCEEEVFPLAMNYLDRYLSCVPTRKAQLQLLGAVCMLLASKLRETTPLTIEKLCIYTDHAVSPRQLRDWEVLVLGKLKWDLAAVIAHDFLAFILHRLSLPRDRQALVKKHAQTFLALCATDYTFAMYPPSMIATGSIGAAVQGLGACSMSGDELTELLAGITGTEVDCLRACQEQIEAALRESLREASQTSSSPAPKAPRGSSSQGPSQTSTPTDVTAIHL
In short: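 Recombinant human CDK6/Cyclin D3 pre-incubated 30 min with inhibitor at room temperature, then reaction started with ATP/substrate and run 90 min at room temperature. ADP formed detected by ADP-Glo luminescence; IC50 from a 4-parameter fit of fractional velocity versus inhibitor concentration.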

CDK4/Cyclin D1 [2] = target: T1, CDK4/Cyclin D1 (Homo sapiens (Human), UniProt P11802); assay: CDK4/Cyclin D1 Mobility Shift Assay (MSA); type: biochemical; conditions: 0.2 mM ATP, read-out: CDK4/ CyclinD1 MSA IC50
T1 sequence (P11802 whole entry): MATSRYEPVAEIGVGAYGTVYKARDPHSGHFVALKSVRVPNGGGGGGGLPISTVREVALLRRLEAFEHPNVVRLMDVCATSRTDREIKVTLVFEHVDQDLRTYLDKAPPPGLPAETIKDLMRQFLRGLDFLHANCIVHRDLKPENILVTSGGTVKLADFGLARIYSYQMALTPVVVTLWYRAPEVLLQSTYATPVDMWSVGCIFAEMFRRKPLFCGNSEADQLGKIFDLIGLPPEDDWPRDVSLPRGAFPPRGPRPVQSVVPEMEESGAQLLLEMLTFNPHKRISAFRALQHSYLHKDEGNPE
T1 sequence (P24385 whole entry partner): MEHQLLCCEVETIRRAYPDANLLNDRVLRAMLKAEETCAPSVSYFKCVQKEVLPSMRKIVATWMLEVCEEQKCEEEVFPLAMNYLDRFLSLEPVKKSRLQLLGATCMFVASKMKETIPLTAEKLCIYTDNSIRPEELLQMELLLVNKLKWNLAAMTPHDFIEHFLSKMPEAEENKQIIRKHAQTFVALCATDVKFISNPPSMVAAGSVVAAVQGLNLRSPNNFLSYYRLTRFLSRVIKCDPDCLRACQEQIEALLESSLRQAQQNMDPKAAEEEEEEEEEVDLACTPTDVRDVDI
Description: CDK4/Cyclin D1 Mobility Shift Assay (MSA)
The purpose CDK4/Cyclin D1 assay is to evaluate the inhibition (% inhibition and IC50 values) in the presence of small molecule inhibitors by using a fluorescence based microfluidic mobility shift assay. CDK4/Cyclin D1 catalyzes the production of ADP from ATP that accompanies the phosphoryl transfer to the substrate peptide 5-FAM-Dyrktide (5-FAM-RRRFRPASPLRGPPK) (Perkin Elmer Peptide 34). The mobility shift assay (MSA) electrophoretically separates the fluorescently labelled peptides (substrate and phosphorylated product) following the kinase reaction. Both substrate and product are measured, and the ratio of these values is used to generate % conversion of substrate to product by the LabChip EZ Reader. Typical reaction solutions contained 2% DMSO (+/−inhibitor), 10 mM MgCl2, 1 mM EGTA, 0.05% BSA, 2 mM DTT, 0.2 mM ATP, 0.01% Brig-35, 1.5 uM 5-FAM-Dyrktide, 2.5 nM CDK4/Cyclin D1 in 50 mM HEPES buffer at pH 7.5. The reaction was initiated with the addition of substrate solution, following a 30-minute pre-incubation of enzyme and inhibitor at 22° C. in the reaction mix. The reaction was stopped after 180 minutes by the addition of 75 uL of 500 mM EDTA and measured on a Perkin Elmer EZ reader instrument. IC50 determinations were made from a plot of the fractional velocity as a function of inhibitor concentration fit to the 4 parameters IC50 equation.

CDK4/Cyclin D1 [3] = target: T1, CDK4/Cyclin D1; assay: CDK4/Cyclin D1 CHEF Assay (AQT0258 peptide); type: biochemical; conditions: 200 uM ATP, read-out: CDK4/ CyclinD1 AQT IC50
In short: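 CDK4/Cyclin D1 (2.5 nM) phosphorylating 10 uM Sox-labelled peptide AQT0258 with 200 uM ATP (Km 195.2 uM), 10 mM MgCl2, 2% DMSO, 54 mM HEPES pH 7.5. Enzyme and inhibitor pre-incubated 30 min, reaction 3 hrs at 22° C.; CHEF fluorescence (ex 360/em 485 nm), IC50 from fractional velocity, 4-parameter fit.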

MCF-7 cells = assay: Cell Growth Inhibition, MCF-7 (CellTiterGlo, 6 days); type: cell-based; conditions: Homo sapiens, MCF7, 144 h; MCF-7, 6-day treatment, CellTiterGlo 2.0
In short: (§1)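 MCF-7 and OVCAR-3 cells (RPMI, 10% FBS) were seeded at 500 cells/well onto compound, typically 10–10,000 nM in half-log dilutions. Growth proceeded 6 days at 37 °C, then CellTiterGlo luminescence was read. % inhibition was taken versus control, and IC50 came from a four-parameter variable-slope fit.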

OVCAR-3 cells = assay: Cell Growth Inhibition, OVCAR-3 (CellTiterGlo, 6 days); type: cell-based; conditions: Homo sapiens, 144 h; OVCAR-3, 6-day treatment, CellTiterGlo 2.0
In short: as §1

Sequence of CDK1/Cyclin B1 (P06493 whole entry): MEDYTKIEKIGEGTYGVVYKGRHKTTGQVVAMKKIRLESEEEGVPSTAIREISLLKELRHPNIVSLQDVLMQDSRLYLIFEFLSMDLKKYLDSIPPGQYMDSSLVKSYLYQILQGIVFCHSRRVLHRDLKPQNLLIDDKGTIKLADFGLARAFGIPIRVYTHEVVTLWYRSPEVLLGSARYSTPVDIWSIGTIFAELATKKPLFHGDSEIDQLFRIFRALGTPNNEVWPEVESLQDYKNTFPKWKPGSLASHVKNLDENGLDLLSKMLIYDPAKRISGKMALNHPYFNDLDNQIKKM
Sequence of CDK1/Cyclin B1 (P14635 whole entry partner): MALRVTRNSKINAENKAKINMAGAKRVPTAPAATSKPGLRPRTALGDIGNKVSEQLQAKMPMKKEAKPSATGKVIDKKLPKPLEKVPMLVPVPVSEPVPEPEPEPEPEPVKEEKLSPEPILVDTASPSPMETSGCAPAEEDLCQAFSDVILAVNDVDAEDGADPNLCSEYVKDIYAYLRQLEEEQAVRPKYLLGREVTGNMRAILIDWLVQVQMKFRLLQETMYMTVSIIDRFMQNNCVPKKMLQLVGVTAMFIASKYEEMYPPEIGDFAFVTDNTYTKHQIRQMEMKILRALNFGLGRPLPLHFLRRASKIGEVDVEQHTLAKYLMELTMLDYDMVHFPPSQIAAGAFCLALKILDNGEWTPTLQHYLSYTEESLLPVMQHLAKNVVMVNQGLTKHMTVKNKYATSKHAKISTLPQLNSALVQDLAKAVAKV

Row | SMILES | IC50 (CDK1/Cyclin B1) [nM] | IC50 [1] [nM] | IC50 (CDK6/Cyclin D3) [nM] | IC50 (CDK4/Cyclin D1 [2]) [nM] | IC50 (CDK4/Cyclin D1 [3]) [nM] | IC50 (MCF-7 cells) [nM] | IC50 (OVCAR-3 cells) [nM]
1 | CC(=O)N1CC2(CCN(c3cccc4cnc(NC5CCN(S(C)(=O)=O)CC5)nc34)C2)C1 [Example 5, 1-(6-(2-((1-(methylsulfonyl)piperidin-4-yl)amino)quinazolin-8-yl)-2,6-diazaspiro[3.4]octan-2-yl)ethan-1-one] | > 2000 | 200 to 500 | 500 to 2000 | 500 to 2000 | – | – | –
2 | CS(=O)(=O)N1CCC(Nc2ncc3cccc(N4CCCC5(CCOC5)C4)c3n2)CC1 (stereo not shown) [Example 7, N-(1-(methylsulfonyl)piperidin-4-yl)-8-(2-oxa-7-azaspiro[4.5]decan-7-yl)quinazolin-2-amine] | > 2000 | < 200 | 500 to 2000 | 200 to 500 | – | – | –
3 | CS(=O)(=O)N1CCC(Nc2ncc3cccc(N4CCCC5(COC5)C4)c3n2)CC1 [Example 8, N-(1-(methylsulfonyl)piperidin-4-yl)-8-(2-oxa-6-azaspiro[3.5]nonan-6-yl)quinazolin-2-amine] | > 2000 | 200 to 500 | 500 to 2000 | 500 to 2000 | – | – | –
4 | CS(=O)(=O)N1CCC(Nc2ncc3cccc(N4CCOC5(CC5)C4)c3n2)CC1 [Example 9, N-(1-(methylsulfonyl)piperidin-4-yl)-8-(4-oxa-7-azaspiro[2.5]octan-7-yl)quinazolin-2-amine] | > 2000 | 200 to 500 | 200 to 500 | 500 to 2000 | – | – | –
5 | CS(=O)(=O)N1CCC(Nc2ncc3cccc(N4CCN(C5COC5)CC4)c3n2)CC1 [Example 11, N-(1-(methylsulfonyl)piperidin-4-yl)-8-(4-(oxetan-3-yl)piperazin-1-yl)quinazolin-2-amine] | > 2000 | 500 to 2000 | > 2000 | 500 to 2000 | – | – | –
6 | CS(=O)(=O)N1CCC(Nc2ncc3cccc(N4CCN(S(C)(=O)=O)CC4)c3n2)CC1 [Example 12, 8-(4-(methylsulfonyl)piperazin-1-yl)-N-(1-(methylsulfonyl)piperidin-4-yl)quinazolin-2-amine] | > 2000 | 200 to 500 | 500 to 2000 | 200 to 500 | – | – | –
7 | CS(=O)(=O)N1CCC(Nc2ncc3cccc(N4CCN(C5CC5)CC4)c3n2)CC1 [Example 13, 8-(4-cyclopropylpiperazin-1-yl)-N-(1-(methylsulfonyl)piperidin-4-yl)quinazolin-2-amine] | > 2000 | < 200 | 500 to 2000 | 200 to 500 | – | – | –
8 | CS(=O)(=O)N1CCC(Nc2ncc3cccc(N4CC5(CCOCC5)C4C4CC4)c3n2)CC1 (stereo not shown) [Example 16, 8-(1-cyclopropyl-7-oxa-2-azaspiro[3.5]nonan-2-yl)-N-(1-(methylsulfonyl)piperidin-4-yl)quinazolin-2-amine] | > 2000 | < 200 | > 2000 | 500 to 2000 | – | – | –
9 | CS(=O)(=O)N1CCC(Nc2ncc3cccc(N4CCN(CC5CC5)CC4)c3n2)CC1 [Example 17, 8-(4-(cyclopropylmethyl)piperazin-1-yl)-N-(1-(methylsulfonyl)piperidin-4-yl)quinazolin-2-amine] | > 2000 | < 200 | 500 to 2000 | 200 to 500 | – | – | –
10 | CCN(CC)C1CCN(c2cccc3cnc(NC4CCN(S(C)(=O)=O)CC4)nc23)CC1 [Example 20, 8-(4-(diethylamino)piperidin-1-yl)-N-(1-(methylsulfonyl)piperidin-4-yl)quinazolin-2-amine] | > 2000 | < 200 | 500 to 2000 | 200 to 500 | – | – | –
11 | CC1(C)CC2(CN(c3cccc4cnc(NC5CCN(S(C)(=O)=O)CC5)nc34)C2)C1 [Example 21, 8-(6,6-dimethyl-2-azaspiro[3.3]heptan-2-yl)-N-(1-(methylsulfonyl)piperidin-4-yl)quinazolin-2-amine] | > 2000 | 200 to 500 | > 2000 | 200 to 500 | – | – | –
12 | CS(=O)(=O)N1CCC(Nc2ncc3cccc(N4CCC5(CCN(S(C)(=O)=O)C5)C4)c3n2)CC1 (stereo not shown) [Example 23, 8-(7-(methylsulfonyl)-2,7-diazaspiro[4.4]nonan-2-yl)-N-(1-(methylsulfonyl)piperidin-4-yl)quinazolin-2-amine] | > 2000 | < 200 | < 200 | < 200 | – | – | –
13 | CC(=O)N1CCC2(CC1)CCN(c1cccc3cnc(NC4CCN(S(C)(=O)=O)CC4)nc13)C2 [Example 25, 1-(2-(2-((1-(methylsulfonyl)piperidin-4-yl)amino)quinazolin-8-yl)-2,8-diazaspiro[4.5]decan-8-yl)ethan-1-one] | > 2000 | < 200 | 200 to 500 | < 200 | – | – | –
14 | CS(=O)(=O)N1CCC(Nc2ncc3cccc(N4CCC5(CCC(F)(F)CC5)C4)c3n2)CC1 [Example 28, 8-(8,8-difluoro-2-azaspiro[4.5]decan-2-yl)-N-(1-(methylsulfonyl)piperidin-4-yl)quinazolin-2-amine] | > 2000 | < 200 | < 200 | < 200 | – | – | –

Continued, values first:

Row | IC50 (CDK1/Cyclin B1) [nM] | IC50 [1] [nM] | IC50 (CDK6/Cyclin D3) [nM] | IC50 (CDK4/Cyclin D1 [2]) [nM] | IC50 (CDK4/Cyclin D1 [3]) [nM] | IC50 (MCF-7 cells) [nM] | IC50 (OVCAR-3 cells) [nM] | SMILES
15 | 500 to 2000 | < 200 | < 200 | < 200 | – | – | – | CS(=O)(=O)N1CCC(Nc2ncc3cccc(N4CCCC4)c3n2)CC1 [Example 2, N-(1-(methylsulfonyl)piperidin-4-yl)-8-(pyrrolidin-1-yl)quinazolin-2-amine]
16 | 500 to 2000 | < 200 | < 200 | < 200 | – | – | – | CS(=O)(=O)N1CCC(Nc2ncc3cccc(N4CCC5(COC5)C4)c3n2)CC1 [Example 22, N-(1-(methylsulfonyl)piperidin-4-yl)-8-(2-oxa-6-azaspiro[3.4]octan-6-yl)quinazolin-2-amine]
17 | < 200 | < 200 | < 200 | – | < 200 | 500 to 2000 | 500 to 2000 | CS(=O)(=O)N1CCC(Nc2ncc3cc(C(F)F)cc(N4CC5(CNCC5(F)F)C4)c3n2)CC1 [Example 115, 8-(8,8-difluoro-2,6-diazaspiro[3.4]octan-2-yl)-6-(difluoromethyl)-N-(1-(methylsulfonyl)piperidin-4-yl)quinazolin-2-amine]
18 | 500 to 2000 | < 200 | < 200 | – | < 200 | 500 to 2000 | > 2000 | CS(=O)(=O)N1CCC(Nc2ncc3cc(C(F)(F)F)cc(N4CC5(CNCC5(F)F)C4)c3n2)CC1 [Example 116, 8-(8,8-difluoro-2,6-diazaspiro[3.4]octan-2-yl)-N-(1-(methylsulfonyl)piperidin-4-yl)-6-(trifluoromethyl)quinazolin-2-amine]
19 | < 200 | < 200 | < 200 | – | < 200 | 500 to 2000 | 200 to 500 | CS(=O)(=O)N1CCC(Nc2ncc3cccc(C4CC(O)(C(F)F)C4)c3n2)CC1 (stereo not shown) [Example 120, 1-(difluoromethyl)-3-(2-((1-(methylsulfonyl)piperidin-4-yl)amino)quinazolin-8-yl)cyclobutan-1-ol]
20 | 200 to 500 | < 200 | < 200 | – | < 200 | > 2000 | 500 to 2000 | CS(=O)(=O)N1CCC(Nc2ncc3cccc(C4CC(CO)(C(F)F)C4)c3n2)CC1 (stereo not shown) [Example 121, (1-(difluoromethyl)-3-(2-((1-methanesulfonylpiperidin-4-yl)amino)quinazolin-8-yl)cyclobutyl]methanol]
